Measured values published in patent publication US20240343761A1, “APELINERGIC MACROCYCLES AND USES THEREOF” (priority 2021, published 2024).
Where two headings read alike, the source gives them in different places. Numbered stars: 1 amine (or outer) side, 2 acyl side, 3 side chain; on linkers, the order of the positions; unused ones are H or OH. Bridge positions count the residues as written; N and C are the ends. Square brackets hold non-standard residues; d marks the D form. Peptide text beside a SMILES is read from it. * marks the point of attachment. X3 = O=C([C@H](CCCCNCCC=[*:3])N[*:1])[*:2]; X9 = O=C([C@H](CCCNCCC=[*:3])N[*:1])[*:2]; hArg = N=C(N)NCCCC[C@H](N)C(=O)O; dAllylGly = C=CC[C@@H](N)C(=O)O; AllylGly = C=CC[C@H](N)C(=O)O; pGlu = O=C1CC[C@@H](C(=O)O)N1; Nle = CCCC[C@H](N)C(=O)O; Ava = NCCCCC(=O)O; Bn = c1ccc(C*)cc1

Columns and labels:
human APJ (hAPJ) = molecular target: T1, human APJ (hAPJ) (Homo sapiens, UniProt P35414); test: Competitive radioligand binding ([125I][Nle75,Tyr77][Pyr1]-Ape13) on membranes of HEK293 cells stably expressing human APJ
T1 construct: expressed in transfected cells; cell membranes
T1 sequence (P35414 1-380): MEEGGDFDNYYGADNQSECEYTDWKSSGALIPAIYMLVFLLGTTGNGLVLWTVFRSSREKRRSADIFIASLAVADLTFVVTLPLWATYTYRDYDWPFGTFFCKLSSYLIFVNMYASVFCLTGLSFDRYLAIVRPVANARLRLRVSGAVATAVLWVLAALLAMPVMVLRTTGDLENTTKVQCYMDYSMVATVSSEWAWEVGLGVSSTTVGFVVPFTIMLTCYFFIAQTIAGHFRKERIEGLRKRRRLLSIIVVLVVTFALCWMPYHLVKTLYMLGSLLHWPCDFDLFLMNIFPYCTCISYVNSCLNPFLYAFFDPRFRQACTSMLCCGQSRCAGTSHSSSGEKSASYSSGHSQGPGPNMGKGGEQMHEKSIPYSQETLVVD
Procedure: HEK293 cells stably expressing YFP-tagged human APJ were cultured in DMEM medium supplemented with 10% FBS, at 37° C. under a humid atmosphere maintaining 5% CO2. Antibiotic G418 (400 μg/mL) was added to maintain a selection pressure for APJ-expressing cells while penicillin/streptomycin (0.1%) were used to prevent bacterial contamination.
Binding experiments were performed on cell membranes of HEK293 stably expressing the YFP-tagged human APJ receptor. Cells were frozen at −80° C. for storage and quickly thawed right before the experiments (1 min at 37° C.). […] The precipitate (cell membranes) was suspended in binding buffer (50 mM Tris-HCl, 0.2% BSA, pH 7.4). Binding assays were run in 96-well plates. […] (820 Ci/mmol)^3 and test ligand with a range of concentrations from 10^−1 to 10^−11 M in a total volume of 200 μL for 1 h at room temperature.
The incubation mixtures were filtered through a glass fiber filter (Millipore, pre-absorbed of PEI 0.5% for 2 h at 4° C.) to remove unbound ligands, and the filter membranes were washed three times with 170 μL cold binding buffer (4° C.). The γ emission was measured using a 1470 Wizard γ-counter from PerkinElmer (Waltham, USA) (80% efficiency).

hAPJ receptor [1] = molecular target: T2, hAPJ receptor (Homo sapiens, UniProt P35414); test: BRET-based Gαi1 activation assay in HEK293 cells; format: cell-based
T2 construct: expressed in transfected cells; host or cells: HEK293, transient transfection with PEI
T2 sequence (P35414 1-380): T1 sequence (P35414 1-380)
Procedure: (§1) HEK293 cells were cultivated in high glucose DMEM medium having 10% FBS, 100 U/mL penicillin/streptomycin, 2 mM glutamine, and 20 mM HEPES at 37° C. in T175 flasks under humidified chamber at 5% CO2. […] Cells were then washed with phosphate-buffered saline (PBS) and 90 μL Hanks' balanced salt solution was added in each well. Then, cells were stimulated with analogs at concentrations ranging from 10^−5 M to 10^−11 M for 5 min at 37° C. (Gαi1) or for 30 min at room temperature (β-arrestin2). After stimulation, 5 μM of coelanterazine 400A was added to each well and the plate was read using the BRET^2 filter set of a GeniosPro plate reader (Tecan, Austria). The BRET ratio was determined as GFP10em/RlucIIem. Data were plotted and EC50 values were determined using GraphPad Prism 8. Each data point represents the mean±SEM of at least three different experiments each done in triplicate.

hAPJ receptor [2] = molecular target: T2, hAPJ receptor; test: BRET-based β-arrestin2 recruitment assay in HEK293 cells; format: cell-based
Procedure: as §1

Row | Compound | Ki (human APJ (hAPJ); Ki binding) [nM] | other results
1 | CCCC[C@H](NC(=O)[C@@H]1CCCN1C(=O)CNC(=O)[C@H](CCCCN)NC(=O)[C@H](Cc1c[nH]cn1)NC(=O)[C@H](CO)NC(=O)[C@@H]1CC=CC[C@H](NC(=O)[C@@H]2CCC(=O)N2)C(=O)N2CCC[C@H]2C(=O)N[C@@H](CCCNC(=N)N)C(=O)N1)C(=O)N1CCC[C@H]1C(=O)N[C@@H](Cc1ccccc1)C(=O)O [Compound 3, Pyr-c[X-P-R-X]c-S-H-K-G-P-Nle-P-F] ([pGlu][AllylGly]PR[AllylGly]SHKGP[Nle]PF-OH; staple 2-5) | 1250 ± 284 | 
2 | CCCC[C@H](NC(=O)[C@@H]1CCCN1C(=O)CNC(=O)[C@H](CCCCN)NC(=O)[C@@H]1CC=CC[C@H](NC(=O)[C@@H]2CCC(=O)N2)C(=O)N2CCC[C@H]2C(=O)N[C@@H](CCCNC(=N)N)C(=O)N[C@@H](CC(C)C)C(=O)N[C@@H](CO)C(=O)N1)C(=O)N1CCC[C@H]1C(=O)N[C@@H](Cc1ccccc1)C(=O)O [Compound 4, Pyr-c[X-P-R-L-S-X]c-K-G-P-Nle-P-F] ([pGlu][AllylGly]PRLS[AllylGly]KGP[Nle]PF-OH; staple 2-7) | 148 ± 21 | 
3 | CCCC[C@H](NC(=O)[C@@H]1CCCN1C(=O)CNC(=O)[C@H](CCCCN)NC(=O)[C@H](Cc1c[nH]cn1)NC(=O)[C@H](CO)NC(=O)[C@@H]1CC=CC[C@H](NC(=O)[C@@H]2CCC(=O)N2)C(=O)N2CCC[C@H]2C(=O)N[C@@H](C)C(=O)N1)C(=O)N1CCC[C@H]1C(=O)N[C@@H](Cc1ccccc1)C(=O)O [Compound 5, Pyr-c[X-P-A-X]c-S-H-K-G-P-Nle-P-F] ([pGlu][AllylGly]PA[AllylGly]SHKGP[Nle]PF-OH; staple 2-5) | > 10000 | 
4 | CCCC[C@H](NC(=O)[C@@H]1CCCN1C(=O)CNC(=O)[C@H](CCCCN)NC(=O)[C@H](Cc1c[nH]cn1)NC(=O)[C@@H]1CC=CC[C@H](NC(=O)[C@@H]2CCC(=O)N2)C(=O)N2CCC[C@H]2C(=O)N[C@@H](C)C(=O)N[C@@H](CC(C)C)C(=O)N1)C(=O)N1CCC[C@H]1C(=O)N[C@@H](Cc1ccccc1)C(=O)O [Compound 6, Pyr-c[X-P-A-L-X]c-H-K-G-P-Nle-P-F] | > 10000 | 
5 | CCCC[C@H](NC(=O)[C@@H]1CCCN1C(=O)CNC(=O)[C@H](CCCCN)NC(=O)[C@@H]1CC=CC[C@H](NC(=O)[C@@H]2CCC(=O)N2)C(=O)N2CCC[C@H]2C(=O)N[C@@H](C)C(=O)N[C@@H](CC(C)C)C(=O)N[C@@H](CO)C(=O)N1)C(=O)N1CCC[C@H]1C(=O)N[C@@H](Cc1ccccc1)C(=O)O [Compound 7, Pyr-c[X-P-A-L-S-X]c-K-G-P-Nle-P-F] ([pGlu][AllylGly]PALS[AllylGly]KGP[Nle]PF-OH; staple 2-7) | > 10000 | 
6 | CCCC[C@H](NC(=O)[C@@H]1CCCN1C(=O)CNC(=O)[C@@H]1CC=CC[C@H](NC(=O)[C@@H]2CCC(=O)N2)C(=O)N2CCC[C@H]2C(=O)N[C@@H](C)C(=O)N[C@@H](CC(C)C)C(=O)N[C@@H](CO)C(=O)N[C@@H](Cc2c[nH]cn2)C(=O)N1)C(=O)N1CCC[C@H]1C(=O)N[C@@H](Cc1ccccc1)C(=O)O [Compound 8, Pyr-c[X-P-A-L-S-H-X]c-G-P-Nle-P-F] ([pGlu][AllylGly]PALSH[AllylGly]GP[Nle]PF-OH; staple 2-8) | > 10000 | 
7 | CCCC[C@@H]1NC(=O)[C@@H]2CCCN2C(=O)[C@H](NC(=O)[C@H](CCCCN)NC(=O)[C@H](Cc2c[nH]cn2)NC(=O)[C@H](CO)NC(=O)[C@H](CC(C)C)NC(=O)[C@H](CCCNC(=N)N)NC(=O)[C@@H]2CCCN2C(=O)[C@H](CCCNC(=N)N)NC(=O)[C@@H]2CCC(=O)N2)CC=CC[C@@H](C(=O)O)NC(=O)[C@@H]2CCCN2C1=O [Compound 9, Pyr-R-P-R-L-S-H-K-[dX-P-Nle-P-X]] ([pGlu]RPRLSHK[dAllylGly]P[Nle]P[AllylGly]-OH; staple 9-13) |  | Ki (human APJ (hAPJ)): 52 ± 15 nM
8 | CCCC[C@@H]1NC(=O)[C@@H]2CCCN2C(=O)[C@@H](NC(=O)[C@H](CCCCN)NC(=O)[C@H](Cc2c[nH]cn2)NC(=O)[C@H](CO)NC(=O)[C@H](CC(C)C)NC(=O)[C@H](CCCNC(=N)N)NC(=O)[C@@H]2CCCN2C(=O)[C@H](CCCNC(=N)N)NC(=O)[C@@H]2CCC(=O)N2)CC=CC[C@H](C(=O)O)NC(=O)[C@@H]2CCCN2C1=O [Compound 10, Pyr-R-P-R-L-S-H-K-[X-P-Nle-P-dX]] ([pGlu]RPRLSHK[AllylGly]P[Nle]P[dAllylGly]-OH; staple 9-13) |  | Ki (human APJ (hAPJ)): 187 ± 20 nM
9 | CC(C)C[C@@H]1NC(=O)[C@H](CCCNC(=N)N)NC(=O)[C@@H](N)CC=CC[C@@H](C(=O)N[C@@H](CCCCN)C(=O)O)NC(=O)[C@H](CO)NC1=O [Compound 30, NH2-c[X-R-L-S-X]c-K] (H-[AllylGly]RLS[AllylGly]K-OH; staple 1-5) | > 10000 | 
10 | CCCC[C@H](NC(=O)[C@@H]1CCCN1C(=O)CNC(=O)[C@@H]1CC=CC[C@H](N)C(=O)N[C@@H](CCCNC(=N)N)C(=O)N[C@@H](CC(C)C)C(=O)N[C@@H](CO)C(=O)N1)C(=O)O [Compound 31, NH2-c[X-R-L-S-X]c-G-P-Nle] (H-[AllylGly]RLS[AllylGly]GP[Nle]-OH; staple 1-5) | > 10000 | Ki (human APJ (hAPJ); Ki (APJ affinity)): 0.6 nM
11 | CCCC[C@H](NC(=O)[C@@H]1CCCN1C(=O)CCCCNC(=O)[C@@H]1CC=CC[C@H](N)C(=O)N[C@@H](CCCNC(=N)N)C(=O)N[C@@H](CC(C)C)C(=O)N[C@@H](CO)C(=O)N1)C(=O)O [Compound 32, NH2-c[X-R-L-S-X]c-5Ava-P-Nle] (H-[AllylGly]RLS[AllylGly][Ava]P[Nle]-OH; staple 1-5) | > 10000 | 
12 | N=C(N)NCCC[C@@H]1NC(=O)[C@@H](N)CC=CCCNCCC[C@@H](C(=O)N2CCC[C@H]2C(=O)N[C@@H](Cc2ccc(OCc3ccccc3)cc2)C(=O)O)NC1=O [Compound 51, NH2-c[X-R-Orn(N-butenyl)]-P-Tyr(Obn)] (H-[AllylGly]R[X9]PY(Bn)-OH; staple 1-3) | > 10000 | 
13 | N=C(N)NCCC[C@H](N)C(=O)N[C@H]1CCCCNCCC=CC[C@@H](C(=O)N[C@H](Cc2ccc(OCc3ccccc3)cc2)C(=O)O)NC(=O)[C@@H]2CCCN2C1=O [Compound 57, NH2-R-c[K(N-butenyl)-P-X]-(D-Tyr(Obn))] (H-R[X3]P[AllylGly][dY](Bn)-OH; staple 2-4) | > 10000 | 
14 | N=C(N)NCCC[C@H](N)C(=O)N[C@H]1CCCCNC(=O)CC[C@@H](C(=O)N[C@@H](Cc2ccc(OCc3ccccc3)cc2)C(=O)O)NC(=O)[C@@H]2CCCN2C1=O [Compound 58, NH2-R-c[K-P-E]-Tyr(Obn)] (H-RKPEY(Bn)-OH; lactam 2-4) | > 10000 | 
15 | CC(C)C[C@@H]1NC(=O)[C@@H]2CCCN2C(=O)[C@@H](NC(=O)[C@H](CO)NC(=O)[C@H](CCCCNC(=N)N)NC(=O)[C@H](CCCNC(=N)N)NC(=O)[C@@H]2CCC(=O)N2)CCC(=O)NCCCC[C@@H](C(=O)N[C@@H](CCCNC(=N)N)C(=O)N[C@H](C(=O)N2CCC[C@H]2C(=O)N[C@@H](Cc2ccccc2)C(=O)N2CCC[C@H]2C(=O)O)C(C)C)NC(=O)[C@H](Cc2c[nH]cn2)NC1=O [Compound 91, Pyr-R-hR-S-[E-P-L-H-K]-R-V-P-F-P] ([pGlu]R[hArg]SEPLHKRVPFP-OH; lactam 5-9) |  | EC50 (hAPJ receptor [1]): 4.3 ± 1.1 nM; EC50 (hAPJ receptor [2]): 173 ± 20 nM
16 | CC(C)C[C@@H]1NC(=O)[C@@H]2CCCN2C(=O)[C@@H](NC(=O)[C@H](CO)NC(=O)[C@H](CCCNC(=N)N)NC(=O)[C@H](CCCNC(=N)N)NC(=O)[C@@H]2CCC(=O)N2)CCC(=O)NCCCC[C@@H](C(=O)N[C@@H](CCCNC(=N)N)C(=O)N[C@H](C(=O)N2CCC[C@H]2C(=O)N[C@@H](Cc2ccccc2)C(=O)N2C[C@H](OCc3ccccc3)C[C@H]2C(=O)O)C(C)C)NC(=O)[C@H](Cc2c[nH]cn2)NC1=O [Compound 93, Pyr-R-R-S-[E-P-L-H-K]-R-V-P-F-Hyp(OBn)] |  | EC50 (hAPJ receptor [1]): 47 ± 3 nM; EC50 (hAPJ receptor [2]): 2200 ± 132 nM
